Data from ChEMBL document CHEMBL2073744, “The multidrug-resistant phenotype associated with overexpression of the new ABC half-transporter, MXR (ABCG2)” (J Cell Sci, 2000).

Assays:
[1] = target: T1, Broad substrate specificity ATP-binding cassette transporter ABCG2 (Homo sapiens, UniProt Q9UNQ0); assay: TP_TRANSPORTER: intracellular accumulation in MCF-7 and MCF-7 AdVp3000 cells; assay type: functional, cell-based
T1 sequence (Q9UNQ0 whole entry): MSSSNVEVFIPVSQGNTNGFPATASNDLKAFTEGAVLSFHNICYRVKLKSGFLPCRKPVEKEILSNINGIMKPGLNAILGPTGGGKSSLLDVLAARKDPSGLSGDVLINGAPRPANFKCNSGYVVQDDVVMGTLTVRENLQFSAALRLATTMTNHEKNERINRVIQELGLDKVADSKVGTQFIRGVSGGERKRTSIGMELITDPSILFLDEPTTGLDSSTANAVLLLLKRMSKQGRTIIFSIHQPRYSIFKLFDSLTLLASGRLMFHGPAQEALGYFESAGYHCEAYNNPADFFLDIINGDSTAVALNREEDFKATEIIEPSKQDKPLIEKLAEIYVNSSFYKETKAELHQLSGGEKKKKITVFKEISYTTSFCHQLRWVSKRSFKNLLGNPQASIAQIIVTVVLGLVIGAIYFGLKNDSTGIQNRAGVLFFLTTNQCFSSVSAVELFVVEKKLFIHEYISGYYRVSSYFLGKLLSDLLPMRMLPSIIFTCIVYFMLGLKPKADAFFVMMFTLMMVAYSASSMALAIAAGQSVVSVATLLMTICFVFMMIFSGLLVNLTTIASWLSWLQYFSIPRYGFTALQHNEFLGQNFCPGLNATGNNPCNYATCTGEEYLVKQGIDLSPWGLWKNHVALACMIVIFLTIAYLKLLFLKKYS

[2] = target: T1, Broad substrate specificity ATP-binding cassette transporter ABCG2; assay: TP_TRANSPORTER: intracellular accumulation in S1 and S1-M1-80 cells; assay type: functional, cell-based; conditions: s1;s1-m1-80

With `O=C1c2c(O)ccc(O)c2C(=O)c2c(NCCNCCO)ccc(NCCNCCO)c21` [MITOXANTRONE] the Activity [1] was “substrate [+]” and the Activity [2] was “substrate [+]”.
